The numbers were not newly measured in US20240261254A1, “DIHYDROMYRICETIN NANOEMULSION FORMULATIONS AND METHODS FOR FORMING THEM” (Cheers Health, Inc., priority 2018, published 2024), which cites them from elsewhere.

The structures appear in SMILES notation.

`O=C1c2c(O)cc(O)cc2O[C@H](c2cc(O)c(O)c(O)c2)[C@H]1O` [DHM, dihydromyricetin]: for the setting “low solubility and permeability”, the BCS class result is given as “BCS class IV”. Moreover, the oral bioavailability result (reference [39]) is “less than 5%”.
